Columns and labels:
[1] = biological target: T1, 5-hydroxytryptamine receptor 2C (Homo sapiens, UniProt P28335)
T1 sequence (P28335 whole entry): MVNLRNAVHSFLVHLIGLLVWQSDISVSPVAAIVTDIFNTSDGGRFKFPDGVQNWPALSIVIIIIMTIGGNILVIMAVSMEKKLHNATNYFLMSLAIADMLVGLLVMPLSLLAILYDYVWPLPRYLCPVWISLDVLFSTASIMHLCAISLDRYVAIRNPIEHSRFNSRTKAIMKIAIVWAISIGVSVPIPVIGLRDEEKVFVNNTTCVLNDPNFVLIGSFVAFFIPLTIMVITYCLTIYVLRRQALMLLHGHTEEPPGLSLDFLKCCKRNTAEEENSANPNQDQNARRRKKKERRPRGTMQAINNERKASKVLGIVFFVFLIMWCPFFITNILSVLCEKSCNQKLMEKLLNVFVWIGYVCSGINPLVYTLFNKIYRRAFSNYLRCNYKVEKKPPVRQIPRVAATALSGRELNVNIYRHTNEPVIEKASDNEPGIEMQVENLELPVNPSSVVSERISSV

[2] = biological target: T2, Amine oxidase [flavin-containing] A (Homo sapiens, UniProt P21397); type: functional
T2 sequence (P21397 whole entry): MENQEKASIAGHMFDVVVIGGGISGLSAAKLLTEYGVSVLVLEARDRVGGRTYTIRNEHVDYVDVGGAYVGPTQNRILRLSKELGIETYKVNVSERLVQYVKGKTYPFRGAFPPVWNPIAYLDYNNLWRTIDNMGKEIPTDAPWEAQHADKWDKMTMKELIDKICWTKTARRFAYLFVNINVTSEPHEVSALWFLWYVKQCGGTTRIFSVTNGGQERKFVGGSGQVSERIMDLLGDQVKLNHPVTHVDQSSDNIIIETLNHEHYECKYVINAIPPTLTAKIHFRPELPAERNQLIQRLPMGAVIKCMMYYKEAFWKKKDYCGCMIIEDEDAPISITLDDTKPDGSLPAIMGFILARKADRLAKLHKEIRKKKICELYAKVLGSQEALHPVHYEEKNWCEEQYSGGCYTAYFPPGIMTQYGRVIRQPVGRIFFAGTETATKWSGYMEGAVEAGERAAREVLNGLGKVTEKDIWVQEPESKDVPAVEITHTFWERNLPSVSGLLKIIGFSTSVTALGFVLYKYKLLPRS

B2 bradykinin receptor = biological target: T3, B2 bradykinin receptor (Homo sapiens, UniProt P30411)
T3 sequence (P30411 whole entry): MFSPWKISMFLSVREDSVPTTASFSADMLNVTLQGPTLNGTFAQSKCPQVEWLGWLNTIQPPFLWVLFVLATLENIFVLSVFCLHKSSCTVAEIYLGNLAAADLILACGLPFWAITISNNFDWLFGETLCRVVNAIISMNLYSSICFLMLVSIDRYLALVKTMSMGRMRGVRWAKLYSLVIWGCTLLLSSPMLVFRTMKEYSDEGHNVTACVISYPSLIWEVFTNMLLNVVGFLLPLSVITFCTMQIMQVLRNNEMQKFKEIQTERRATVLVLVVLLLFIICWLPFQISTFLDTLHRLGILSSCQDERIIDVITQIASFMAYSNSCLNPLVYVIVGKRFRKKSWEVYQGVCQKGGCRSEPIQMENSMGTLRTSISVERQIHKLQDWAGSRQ

[3] = biological target: Growth hormone secretagogue receptor type 1 (Homo sapiens, UniProt Q92847)
[4] = biological target: T4, Type-1 angiotensin II receptor (Homo sapiens, UniProt P30556)
T4 sequence (P30556 whole entry): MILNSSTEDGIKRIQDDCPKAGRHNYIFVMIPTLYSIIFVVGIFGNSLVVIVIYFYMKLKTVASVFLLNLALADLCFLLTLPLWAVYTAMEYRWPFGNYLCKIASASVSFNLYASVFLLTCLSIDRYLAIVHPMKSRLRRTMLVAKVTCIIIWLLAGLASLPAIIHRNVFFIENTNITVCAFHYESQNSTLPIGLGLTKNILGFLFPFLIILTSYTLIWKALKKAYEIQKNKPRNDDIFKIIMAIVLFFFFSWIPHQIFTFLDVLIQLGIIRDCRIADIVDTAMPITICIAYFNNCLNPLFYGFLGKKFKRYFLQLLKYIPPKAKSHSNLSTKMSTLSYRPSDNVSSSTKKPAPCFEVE

Estrogen receptor = biological target: T5, Estrogen receptor (Homo sapiens, UniProt P03372)
T5 sequence (P03372 whole entry): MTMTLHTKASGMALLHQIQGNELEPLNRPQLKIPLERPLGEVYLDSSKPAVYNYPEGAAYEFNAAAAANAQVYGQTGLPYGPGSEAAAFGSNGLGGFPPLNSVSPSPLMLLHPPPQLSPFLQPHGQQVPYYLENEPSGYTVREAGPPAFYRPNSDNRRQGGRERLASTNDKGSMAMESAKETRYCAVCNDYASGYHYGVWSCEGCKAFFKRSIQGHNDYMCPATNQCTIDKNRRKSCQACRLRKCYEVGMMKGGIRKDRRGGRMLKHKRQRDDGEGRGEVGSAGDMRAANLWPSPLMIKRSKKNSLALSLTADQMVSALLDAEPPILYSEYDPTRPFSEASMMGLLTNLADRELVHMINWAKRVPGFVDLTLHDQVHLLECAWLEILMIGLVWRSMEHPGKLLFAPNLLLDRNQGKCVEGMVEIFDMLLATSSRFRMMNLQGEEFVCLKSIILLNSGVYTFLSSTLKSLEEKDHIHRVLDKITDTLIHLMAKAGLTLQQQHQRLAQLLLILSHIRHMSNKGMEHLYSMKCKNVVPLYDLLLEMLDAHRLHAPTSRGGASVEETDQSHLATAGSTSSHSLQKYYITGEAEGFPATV

[5] = biological target: T6, Muscarinic acetylcholine receptor M2 (Homo sapiens, UniProt P08172); type: functional, cell-based
T6 sequence (P08172 whole entry): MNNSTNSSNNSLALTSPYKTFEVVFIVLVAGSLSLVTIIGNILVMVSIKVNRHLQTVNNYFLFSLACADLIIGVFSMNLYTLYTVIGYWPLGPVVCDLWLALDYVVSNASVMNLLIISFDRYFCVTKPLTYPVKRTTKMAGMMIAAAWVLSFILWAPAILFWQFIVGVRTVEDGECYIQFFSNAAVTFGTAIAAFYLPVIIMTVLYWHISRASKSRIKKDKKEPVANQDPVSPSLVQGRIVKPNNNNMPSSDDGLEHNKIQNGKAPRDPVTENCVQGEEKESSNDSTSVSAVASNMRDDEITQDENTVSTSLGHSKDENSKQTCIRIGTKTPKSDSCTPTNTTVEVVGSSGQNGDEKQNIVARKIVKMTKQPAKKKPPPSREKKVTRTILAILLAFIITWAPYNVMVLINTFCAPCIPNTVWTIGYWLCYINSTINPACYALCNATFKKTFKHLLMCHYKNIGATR
Also: assay procedure not described here.

Growth hormone secretagogue receptor type 1, sequence (Q92847 whole entry): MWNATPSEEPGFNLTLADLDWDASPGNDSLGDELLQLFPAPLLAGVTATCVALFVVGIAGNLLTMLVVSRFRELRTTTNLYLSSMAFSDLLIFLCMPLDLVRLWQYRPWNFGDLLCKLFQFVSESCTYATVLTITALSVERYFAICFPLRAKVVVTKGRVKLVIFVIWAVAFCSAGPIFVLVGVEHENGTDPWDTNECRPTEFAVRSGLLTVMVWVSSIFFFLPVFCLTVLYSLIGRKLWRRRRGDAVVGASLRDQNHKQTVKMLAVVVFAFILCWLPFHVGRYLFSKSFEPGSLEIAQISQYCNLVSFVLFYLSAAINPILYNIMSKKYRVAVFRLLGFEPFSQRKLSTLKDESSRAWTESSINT

| Compound | AC50 [1] | AC50 [2] | AC50 (B2 bradykinin receptor) | AC50 [3] | AC50 [4] | AC50 (Estrogen receptor) | AC50 [5] |
| --- | --- | --- | --- | --- | --- | --- | --- |
| C[N+]1(C)CCC(=C(c2ccccc2)c2ccccc2)CC1 | > 30 µM | > 10 µM | > 30 µM | > 30 µM | > 10 µM | – | – |
| C[N+](C)(C)CCOP(=O)([O-])OC[C@H](O)CO | > 30 µM | > 30 µM | > 30 µM | > 30 µM | > 30 µM | > 30 µM | > 30 µM |
| CN(C)Cc1nnc2n1-c1ccc(Cl)cc1C(c1ccccc1)=NC2 [ADINAZOLAM] | > 30 µM | > 10 µM | > 10 µM | > 10 µM | > 10 µM | > 10 µM | > 10 µM |
| CN(C)C/C=C/C(=O)Nc1cc2c(Nc3ccc(F)c(Cl)c3)ncnc2cc1O[C@H]1CCOC1 [AFATINIB] | > 30 µM | > 30 µM | > 30 µM | > 30 µM | > 30 µM | > 30 µM | 23 µM |
| Cc1ccccc1-n1c(CF)nc2ccc(N)cc2c1=O [AFLOQUALONE] | > 30 µM | > 10 µM | > 30 µM | > 30 µM | > 30 µM | – | > 10 µM |
| CCC1(c2ccc(N)cc2)CCC(=O)NC1=O (stereo not given) [AMINOGLUTETHIMIDE] | > 30 µM | > 30 µM | > 30 µM | > 30 µM | > 30 µM | – | > 30 µM |
| CC1=C(C(=O)OC(C)C)C(c2cccc([N+](=O)[O-])c2)C(C(=O)OC2CN(C(c3ccccc3)c3ccccc3)C2)=C(N)N1 (stereo not given) [AZELNIDIPINE] | > 30 µM | > 30 µM | > 10 µM | > 30 µM | 12 µM | > 3 µM | > 30 µM |
| O=C(/C=C/c1cccc(S(=O)(=O)Nc2ccccc2)c1)NO [BELINOSTAT] | > 30 µM | > 10 µM | > 30 µM | > 30 µM | > 30 µM | > 30 µM | – |
| CC(Cc1cccc(C(F)(F)F)c1)NCCOC(=O)c1ccccc1 (stereo not given) [BENFLUOREX] | 3.5 µM | > 30 µM | > 30 µM | 28 µM | > 30 µM | – | > 30 µM |
| CCOC(=O)c1ccc(N)cc1 [BENZOCAINE] | > 30 µM | 19 µM | > 10 µM | > 10 µM | > 10 µM | – | > 10 µM |
| CC(C)(Oc1ccc(CCNC(=O)c2ccc(Cl)cc2)cc1)C(=O)O [BEZAFIBRATE] | > 30 µM | > 10 µM | > 10 µM | > 10 µM | > 10 µM | > 10 µM | > 10 µM |
| CC(O)(CS(=O)(=O)c1ccc(F)cc1)C(=O)Nc1ccc(C#N)c(C(F)(F)F)c1 (stereo not given) [BICALUTAMIDE] | > 30 µM | > 10 µM | > 30 µM | 2.2 µM | > 30 µM | – | > 10 µM |
| O=C(O)COCCN1CCN(C(c2ccccc2)c2ccc(Cl)cc2)CC1 (stereo not given) [CETIRIZINE] | > 30 µM | > 10 µM | > 30 µM | > 30 µM | > 30 µM | > 30 µM | – |
| NC[C@H]1CC[C@H](C(=O)Oc2ccc(CCC(=O)O)cc2)CC1 [CETRAXATE] | > 30 µM | > 30 µM | – | – | – | – | > 30 µM |
| CC(=O)O[C@]1(C(C)=O)CC[C@H]2[C@@H]3C=C(Cl)C4=CC(=O)[C@@H]5C[C@@H]5[C@]4(C)[C@H]3CC[C@@]21C [CYPROTERONE ACETATE] | > 30 µM | > 10 µM | > 30 µM | > 30 µM | > 30 µM | – | – |
| C[C@@H]1C[C@H]2[C@@H]3C[C@H](F)C4=CC(=O)C=C[C@]4(C)[C@@]3(F)[C@@H](O)C[C@]2(C)[C@@]1(OC(=O)c1ccco1)C(=O)SCF [FLUTICASONE FUROATE] | > 30 µM | > 10 µM | > 10 µM | > 10 µM | > 10 µM | – | > 10 µM |
| CN(C)CCCN1c2ccccc2CCc2ccccc21 [IMIPRAMINE] | 0.13 µM | > 10 µM | > 30 µM | > 30 µM | > 30 µM | – | 4.3 µM |
| Cc1ccccc1N1C(=O)c2cc(S(N)(=O)=O)c(Cl)cc2NC1C (stereo not given) [METOLAZONE] | > 30 µM | > 10 µM | > 10 µM | > 10 µM | > 10 µM | – | > 10 µM |
| CC(C)c1cccc(C(C)C)c1O [PROPOFOL] | > 30 µM | > 30 µM | – | > 30 µM | > 30 µM | – | > 30 µM |
| COC(=O)[C@H]1[C@H]2C[C@@H]3c4[nH]c5cc(OC)ccc5c4CCN3C[C@H]2C[C@@H](OC(=O)c2cc(OC)c(OC)c(OC)c2)[C@@H]1OC [RESERPINE] | > 30 µM | > 30 µM | > 10 µM | > 10 µM | > 10 µM | – | > 10 µM |
| C[C@]12CCC(=O)C[C@@H]1CC[C@@H]1[C@@H]2CC[C@]2(C)[C@@H](O)CC[C@@H]12 [STANOLONE] | > 30 µM | > 30 µM | > 30 µM | > 30 µM | > 30 µM | – | > 30 µM |
| O=C1OC(OC(=O)c2cccnc2Nc2cccc(C(F)(F)F)c2)c2ccccc21 (stereo not given) [TALNIFLUMATE] | > 30 µM | > 30 µM | > 30 µM | > 30 µM | > 30 µM | – | > 30 µM |
| O=S1(=O)CCN(CN2CCS(=O)(=O)NC2)CN1 [TAUROLIDINE] | > 30 µM | > 30 µM | – | – | – | > 30 µM | > 30 µM |

From ChEMBL document CHEMBL5291721, “A preclinical secondary pharmacology resource illuminates target-adverse drug reaction associations of marketed drugs” (Nat Commun, 2023)
